# Assay results taken from patent US8653304B2, “2,3-dihydro-1H-indene-2-yl urea derivative and pharmaceutical application of same” (Toray Industries, Inc., priority 2009, dated 2014).
# Structures can show the parent of a compound that is named as a salt.
# What was measured:
# [1] = system: Human CYP (Cytochrome P450); assay: Metabolic stability in human CYP (human liver microsomes); format: in vitro ADME; conditions: human liver microsomes 0.5 mg/mL, NADPH, 37° C., comparative control compounds 5 μM
# Description: Each test compound was mixed at a concentration of 2 μM with a phosphate buffer solution containing Human liver microsomes (Xenotech) in an amount of 0.5 mg/mL. Thereafter, NADPH was added thereto, and the obtained mixture was allowed to react at 37° C. for up to 30 minutes. The reaction was terminated by adding acetonitrile, and then the resultant was centrifuged for 10 minutes at 4° C. to collect a supernatant. The supernatant was pretreated by methanol extraction method, and the concentration of the compound was analyzed by LC/MS/MS (ESI positive mode). The compound remaining rate was calculated from the obtained concentration of the compound.
# U937 cells = assay: Ability to induce drug-induced phospholipidosis (U937, Nile red, flow cytometer); format: cell-based, human; conditions: 48 hours, 20 μM, fluorescence intensity compared to valproic acid 300 μM
# Description: The evaluation of Comparative Compound 4c, which was a comparative control compound, was carried out by a method partially modified from the method described in Cell Biology and Toxicology (2003, Vol. 19, pp. 161-176).
# Each test compound was mixed with U937 cells, which are a cell line derived from human monocytes, and the cells were cultured in the presence of 5% CO2 at 37° C. for 48 hours. The cell suspension after the culturing was replaced with a PBS solution containing Nile red (Invitrogen) which is a phospholipid staining solution, and the resulting mixture was allowed to react in the dark at room temperature for 10 minutes. After centrifugal washing with PBS solution, the fluorescence intensity was measured with a flow cytometer (Becton Dickinson) (Excitation Wavelength: 488 nm, Detection Region: 515-545 nm). As a negative control substance, valproic acid (300 μM) was used. […] Each test compound was dissolved in DMSO before use, and the resulting solution was added to the cells such that the final concentration of DMSO was 1%.
compound,measurement,setting,value
"Cc1ccc(-n2nc(C(C)(C)C)cc2NC(=O)Nc2ccc(OCCN3CCOCC3)c3ccccc23)cc1 [Comparative Compound 4c, 1-(3-tert-butyl-1-p-tolyl-1H-pyrazol-5-yl)-3-(4-(2-morpholinoethoxy)naphthalen-1-yl)urea.hydrochloride]",microsomal CLint at 5 μM,[1],321 µL/min/mg
same,phospholipidosis judgement,U937 cells,positive
